In ChEMBL document CHEMBL1153407, “12-Substituted 2,3-dimethoxy-8,9-methylenedioxybenzo[i]phenanthridines as novel topoisomerase I-targeting antitumor agents” (Bioorg Med Chem, 2009) one finds IC50 and Activity data, which are given here for 22 compounds.

Structures are written as SMILES.

The nature of assay [1]: Cytotoxicity against MDR1 overexpressing human KBV1 cells after 4 days by MTT method. Format: functional, cell-based. To be noted: KB-V1, 96 h.
The nature of assay [2]: Cytotoxicity against BCRP overexpressing human KBH5.0 cells after 4 days by MTT method. The class given is functional, cell-based. The following applies: KBH5.0 cell, 96 h. A general note: Tetrazolium assays rely on reduction of a dye to a coloured formazan, in cell work by metabolically active cells.
The nature of assay [3]: Cytotoxicity against human KB3-1 cells after 4 days by MTT method. Format: functional, cell-based. To be noted: KB 3-1, 96 h.
For assay [4], the target named is T1, DNA topoisomerase 1 (Homo sapiens) (UniProt P11387).
T1 sequence (whole entry): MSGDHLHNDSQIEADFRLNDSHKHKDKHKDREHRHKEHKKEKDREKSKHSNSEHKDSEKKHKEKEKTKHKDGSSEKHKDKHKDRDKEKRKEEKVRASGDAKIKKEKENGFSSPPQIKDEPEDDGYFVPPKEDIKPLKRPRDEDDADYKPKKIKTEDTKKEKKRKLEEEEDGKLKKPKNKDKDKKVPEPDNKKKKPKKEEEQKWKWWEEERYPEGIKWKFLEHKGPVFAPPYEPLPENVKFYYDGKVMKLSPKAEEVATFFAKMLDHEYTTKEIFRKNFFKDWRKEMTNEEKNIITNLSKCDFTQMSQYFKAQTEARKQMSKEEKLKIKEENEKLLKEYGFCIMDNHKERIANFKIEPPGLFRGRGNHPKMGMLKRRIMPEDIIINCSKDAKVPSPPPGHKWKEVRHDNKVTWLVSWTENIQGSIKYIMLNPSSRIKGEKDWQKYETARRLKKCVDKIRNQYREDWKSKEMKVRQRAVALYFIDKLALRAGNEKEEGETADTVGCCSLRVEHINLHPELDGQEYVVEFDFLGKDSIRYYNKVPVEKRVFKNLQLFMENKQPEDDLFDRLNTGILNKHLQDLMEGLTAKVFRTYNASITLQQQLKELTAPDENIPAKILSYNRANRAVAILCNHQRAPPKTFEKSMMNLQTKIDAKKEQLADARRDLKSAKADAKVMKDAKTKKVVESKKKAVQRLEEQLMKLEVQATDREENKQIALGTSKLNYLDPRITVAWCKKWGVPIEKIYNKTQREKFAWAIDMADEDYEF
Briefly: Inhibition of human topoisomerase 1 expressed in sf9 cells assessed as drug level causing 10% mediated DNA cleavage relative to topotecan.

The test system of assay [5] is P388. Briefly: Cytotoxicity against camptothecin-resistant mouse P388 cells after 4 days by MTT method. Format: functional, cell-based. The following applies: P388, 96 h.
Assay [6] deals with P388. Nature of the assay: Cytotoxicity against mouse P388 cells after 4 days by MTT method. The following applies: P388, 96 h. Format: functional, cell-based.
Assay [7] is described as follows: Cytotoxicity against human RPMI8402 cells after 4 days by MTT method. The class given is functional, cell-based. To be noted: RPMI 8402, 96 h.
A short description of assay [8]: Cytotoxicity against camptothecin-resistant human CPT-K5 cells after 4 days by MTT method. To be noted: CPT-K5, 96 h. Format: functional, cell-based.

For the compound `CC[C@@]1(O)C(=O)OCc2c1cc1n(c2=O)Cc2cc3c(CN(C)C)c(O)ccc3nc2-1` [TOPOTECAN], the IC50 (usually the point on the concentration scale where inhibition reaches its midpoint) in assay [1] was 440 nM; in assay [2], 440 nM; in assay [3], 40 nM.

`CNC(=O)c1cc2c3cc4c(cc3ncc2c2cc(OC)c(OC)cc12)OCO4`: in assay [4], the Activity came to 1.2. Also, the half-maximal inhibitory concentration (IC50) in assay [1] came out at 100 nM; with P388 [5] it was 300 nM; in assay [2] it was 80 nM; in the assay on P388 [6], 30 nM; in assay [7], 40 nM; in assay [3], 31 nM. Moreover, the concentration for half-maximal inhibition (IC50) in assay [8] was > 10000 nM.

As for `COc1cc2c(C=O)cc3c4cc5c(cc4ncc3c2cc1OC)OCO5`, the Activity in assay [4] was determined as 4.7. Also, the IC50 in assay [1] amounted to 16 nM; in the assay on P388 [5], 2 nM; in assay [2] it was 19 nM; with P388 [6], 2 nM; in assay [7] it was 3 nM; in assay [3] it was 4 nM. In assay [8], this compound showed a half-maximal inhibitory concentration (IC50) of 3 nM.

For `COc1cc2c(=O)n(CCN(C)C)c3c4cc5c(cc4ncc3c2cc1OC)OCO5`, the Activity in assay [4] is 0.3. For the same compound, the concentration for half-maximal inhibition (IC50) in assay [1] stood at 2 nM; in assay [2], 6 nM; in assay [7], 2 nM; in assay [3] it was 5 nM; in assay [8], 900 nM.

For `COc1cc2c(CCCN(C)C)cc3c4cc5c(cc4ncc3c2cc1OC)OCO5`, the Activity in assay [4] was 10. Moreover, the half-maximal inhibitory concentration (IC50) in assay [1] worked out at 500 nM; in the assay on P388 [5], 100 nM; in assay [2], 180 nM; with P388 [6], 38 nM; in assay [7] it was 180 nM; in assay [3], 40 nM. The compound further came in with an IC50 in assay [8] of 140 nM.

As to `COc1cc2c(/C=C/[N+](=O)[O-])cc3c4cc5c(cc4ncc3c2cc1OC)OCO5`, in assay [4], the Activity was 9.2. In addition, the IC50 stood at 1780 nM in assay [1]; 25 nM with P388 [5]; 40 nM in assay [2]; 25 nM in the assay with P388 [6]; 33 nM in assay [7]; 30 nM in assay [3]. Besides, inhibition in assay [8] was half-maximal at 35 nM (IC50).

For `CCc1c2c(nc3ccc(O)cc13)-c1cc3c(c(=O)n1C2)COC(=O)[C@]3(O)CC` [7-ETHYL-10-HYDROXYCAMPTOTHECIN], the figures for the IC50 in assay [1], in assay [2] and in assay [3] were 46 nM, 300 nM and 4 nM, respectively.

Consider `COc1cc2c(CO)cc3c4cc5c(cc4ncc3c2cc1OC)OCO5`, for which the Activity in assay [4] stood at 0.25. Further, the IC50 was determined as 75 nM in assay [1]; 30 nM in the assay on P388 [5]; 80 nM in assay [2]; 30 nM in the assay on P388 [6]; 30 nM in assay [7]; 45 nM in assay [3]. Also, the concentration for half-maximal inhibition (IC50) in assay [8] worked out at 30 nM.

On to `COc1cc2c(CCCCN(C)C)cc3c4cc5c(cc4ncc3c2cc1OC)OCO5`, for which the Activity in assay [4] amounted to 0.2. Also, the concentration for half-maximal inhibition (IC50) is 4000 nM in assay [1]; 2100 nM in the assay with P388 [5]; 950 nM in assay [2]; 1400 nM in the assay with P388 [6]; 1000 nM in assay [7]; 400 nM in assay [3]. In addition, 2300 nM corresponded to half-maximal inhibition in assay [8] (IC50).

`COc1cc2c(/C=C/CN(C)C)cc3c4cc5c(cc4ncc3c2cc1OC)OCO5`: in assay [4], the Activity came out at 7.7. Also, the IC50 turned out to be 370 nM in assay [1]; 37 nM in the assay on P388 [5]; 290 nM in assay [2]; 30 nM in the assay with P388 [6]; 45 nM in assay [7]; 160 nM in assay [3]. The compound also gave an IC50 in assay [8] of 83 nM.

Regarding `COc1cc2c(C(O)CCCN(C)C)cc3c4cc5c(cc4ncc3c2cc1OC)OCO5` (centres undefined), in assay [4], the Activity worked out at 9.2. Also, the IC50 in assay [1] came out at 1900 nM; in the assay on P388 [5], 510 nM; in assay [2], 550 nM; with P388 [6] it was 410 nM; in assay [7] it was 300 nM; in assay [3], 170 nM. This compound came in with an IC50 in assay [8] of 2100 nM.

On to `COc1cc2c(CCN)cc3c4cc5c(cc4ncc3c2cc1OC)OCO5`, for which the Activity in assay [4] was 0.3. In addition, the IC50 in assay [1] amounted to 500 nM; in the assay with P388 [5], 300 nM; in assay [2], 200 nM; in the assay on P388 [6] it was 16 nM; in assay [7], 25 nM; in assay [3] it was 50 nM. Moreover, the concentration for half-maximal inhibition (IC50) in assay [8] turned out to be 250 nM.

Consider `CC[C@@]1(O)C(=O)OCc2c1cc1n(c2=O)Cc2cc3ccccc3nc2-1` [CAMPTOTHECIN], for which the Activity in assay [4] is 0.2. The figures for the 50% inhibitory concentration (IC50) (in the assay with P388 [5]; in assay [7]; in assay [8]) were > 10000 nM, 4 nM and > 10000 nM, respectively.

Consider `COc1cc2c(C(N)=O)cc3c4cc5c(cc4ncc3c2cc1OC)OCO5`, for which the Activity in assay [4] was found to be 0.8. The IC50 in assay [1] was > 10000 nM; in the assay with P388 [5] it was > 10000 nM; in assay [2] it was > 10000 nM; in the assay with P388 [6], 1600 nM; in assay [7], 4000 nM; in assay [3] it was 1500 nM. Besides, the IC50 in assay [8] was > 10000 nM.

On to `COc1cc2c(C(=O)NCCN(C)C)cc3c4cc5c(cc4ncc3c2cc1OC)OCO5`, for which the Activity in assay [4] is 0.1. For the same compound, the 50% inhibitory concentration (IC50) in assay [1] is 220 nM; in the assay on P388 [5] it was 320 nM; in assay [2] it was 60 nM; in the assay with P388 [6], 3 nM; in assay [7] it was 3 nM; in assay [3], 5 nM. The same compound gave a half-inhibitory concentration (IC50) in assay [8] of 1000 nM.

On to `COc1cc2c(C(=O)N(C)C)cc3c4cc5c(cc4ncc3c2cc1OC)OCO5`, for which, in assay [4], the Activity was determined as 1.1. Moreover, the IC50 in assay [1] was 700 nM; in the assay on P388 [5], > 10000 nM; in assay [2] it was 380 nM; with P388 [6], 480 nM; in assay [7] it was 600 nM; in assay [3], 600 nM. For the same compound, the IC50 in assay [8] is > 10000 nM.

Consider `COc1cc2c3cnc4cc5c(cc4c3c(=O)n(CCN(C)C)c2cc1OC)OCO5`, for which the Activity in assay [4] is 0.6. In addition, the concentration for half-maximal inhibition (IC50) in assay [1] was found to be 4 nM; in the assay with P388 [5], 15 nM; in assay [2], 4 nM; in assay [7] it was 0.7 nM; in assay [3], 3 nM; in assay [8], 210 nM.

As for `COc1cc2c(CC[N+](=O)[O-])cc3c4cc5c(cc4ncc3c2cc1OC)OCO5`, the Activity in assay [4] amounted to 7.7. Also, the IC50 came to 440 nM in assay [1]; 290 nM in the assay with P388 [5]; 490 nM in assay [2]; 280 nM in the assay on P388 [6]; 380 nM in assay [7]; 300 nM in assay [3]. Also, in assay [8], inhibition was half-maximal at 300 nM (IC50).

`COc1cc2c(CN(C)C)cc3c4cc5c(cc4ncc3c2cc1OC)OCO5`: the Activity in assay [4] worked out at 1.1. The IC50 was determined as 170 nM in assay [1]; 15 nM with P388 [5]; 60 nM in assay [2]; 5 nM with P388 [6]; 33 nM in assay [7]; 30 nM in assay [3]. This compound also registered an IC50 in assay [8] of 33 nM.

As to `COc1cc2c(/C=C/CCN(C)C)cc3c4cc5c(cc4ncc3c2cc1OC)OCO5`, the Activity in assay [4] is 15. Further, the IC50 is 400 nM in assay [1]; 60 nM in the assay on P388 [5]; 320 nM in assay [2]; 30 nM in the assay with P388 [6]; 300 nM in assay [7]; 320 nM in assay [3]. For the same compound, the IC50 in assay [8] came to 220 nM.

On to `COc1cc2c(CNCCN(C)C)cc3c4cc5c(cc4ncc3c2cc1OC)OCO5`, for which the Activity in assay [4] worked out at 1.9. Moreover, the half-maximal inhibitory concentration (IC50) in assay [1] is 27 nM; with P388 [5], 24 nM; in assay [2], 38 nM; in the assay with P388 [6] it was 20 nM; in assay [7] it was 24 nM; in assay [3] it was 25 nM. In assay [8], this compound gave an IC50 of 30 nM.

Turning to `COc1cc2c(CCN(C)C)cc3c4cc5c(cc4ncc3c2cc1OC)OCO5`, the Activity in assay [4] was found to be 0.5. Also, the half-inhibitory concentration (IC50) in assay [1] is 80 nM; in the assay on P388 [5] it was 300 nM; in assay [2] it was 70 nM; in the assay with P388 [6], 30 nM; in assay [7], 30 nM; in assay [3], 25 nM. 450 nM corresponded to half-maximal inhibition in assay [8] (IC50).
